We go through 12 compounds from patent EP1949899A1, “Metal salophen complexes use in prevention and treatment of cancer” (Freie Universität Berlin, priority 2007, dated 2008).

By IC50 is commonly meant the point on the concentration scale where inhibition reaches its midpoint.

In one data set the test system is MCF-7-cells. Put plainly: Concentration dependent cytotoxicity test (IC50) on MCF-7 cells. The class given is cell-based.
A further data set has as its system MDA-MB-231-cells. Put plainly: Concentration dependent cytotoxicity test (IC50) on MDA-MB-231 cells. The class given is cell-based.
A further data set has as its system MDA-MB-231 cells. Put plainly: Time dependent test (crystal violet assay) on MDA-MB-231 cells. The class given is cell-based.
The subject of data set [1] is MCF-7 cells. As to the kind of experiment: Time dependent test (crystal violet assay) on MCF-7 cells. The class given is cell-based.
Data set [2] concerns supercoiled plasmid DNA (pSK Bluescript). As to the kind of experiment: DNA cleavage reactions with plasmid DNA on agarose gels. The class given is biochemical. To be noted: for DNA cleaving effect: 1 h at 37 °C. The procedure:
General procedure for DNA cleavage reactions with plasmid DNA on agarose gels
100 µl reaction mixture contained 1 µg of supercoiled plasmid DNA (pSK Bluescript) in a tris-HCI buffer at pH 7.0, 1 µl of iron complex solution at the desired concentration (10 mM to 10 µM in DMSO) and in some cases 1 µl of 100 µM dithiothreitol solution resp. 1 µl of 1 mM mercaptoethanol solution. After incubation at 37 °C for the indicated time, 1 µl of loading buffer (0.25 % bromophenol blue, 0,25 % xylene cyanol, 30 % glycerin in H2O) was added to 5 µl reaction mixture (containing 50 ng plasmid DNA) and subsequently loaded onto a 0.8 % agarose gel. One µl of 1 kb-DNA-ladder (NewEnglandBiolabs, #N3232L) was loaded for estimation of size and amount of loaded DNA sample. The electrophoresis was carried out for ~ 45 min at 100 V in TBE buffer at pH 8.3. Gels were stained with etidium bromide (1 µg/ml) and photographed under 254 nm UV light.

Another data set has as its system LNCaP-FGC-cells. As to the kind of experiment: Time dependent test (crystal violet assay) on LNCaP-FGC-cells. The class given is cell-based. The procedure: The time dependent tests were performed according to Reile, H. et al.: "Computerized Determination of Growth Kinetic Curves and Doubling Times from Cells in Microculture", Analytical Biochemistry, 1990, 187 (2): 262-267; Bernhardt, G. et al.: "Standardized kinetic microassay to quantifiy differential chemosensitivity on the basis of proliferative activity", Journal of Research Clin. Oncol., 1992, 118: 35-43 and Gust, R. et al.: "Development of Cobalt(3,4-diarylsalen) Complexes as Tumor Therapeutics", Journal of Medicinal Chemistry, 2004, 47 (24): 5837-5846.
Determining the cell mass in the crystal violet assay the interpretation of the received values was the following: […]

The subject of a further data set is HeLa cells. As to the kind of experiment: Time dependent test (crystal violet assay) on HeLa cells. The class given is cell-based.
Data set [3] relates to MCF-7 cells. To be noted: Ghezzi, A. et al., 2004; cited from earlier work.
Setting [4] is: MCF-7, stopped after 96 hours, read-out: IC50.
Where [5] appears, read: higher concentrations (1-10 µM).
The mark [6] stands for this setting: low concentrations (0,1 µM), in the presence of a reducing agent.
Where [7] appears, read: MDA-MB-231, stopped after 72 hours, read-out: IC50.
The mark [8] stands for this setting: Homo sapiens, MCF7, MCF-7, stopped after 96 hours, read-out: IC50.
Setting [9] is: Homo sapiens, MDA-MB-231, stopped after 72 hours, read-out: IC50.

Like-named read-outs stand apart in the source and are kept apart here.

Protocol for MCF-7-cells: (§1) Measurement of IC50-values was performed as described by Ott, I. et al., Journal of Medicinal Chemistry, 2005, 48 (2): 622-629. But unlike described in the literature, the experiments with MCF-7-cells were stopped after 96 hours and experiments with MDA-MB-231-cells were stopped after 72 hours.
Protocol for MDA-MB-231-cells: as §1

Regarding `N[C@@H](Cc1ccc(N(CCCl)CCCl)cc1)C(=O)O` [Melphalan], the IC50 in the data set on MCF-7-cells (Homo sapiens, MCF7, 96 h) was 5.7 µM; with MDA-MB-231-cells (Homo sapiens, MDA-MB-231, 72 h), 3.9 µM.

With `[Cl-].[Fe+3].[O-]c1ccccc1C=Nc1ccccc1N=Cc1ccccc1[O-]` [Fe(III)salophen chloride, [N,N'-Bis(salicylidene)phenylene-1,2-diamine]-iron(III)-chloride], the IC50 with MCF-7-cells (setting [4]) is 0.3 µM; in the data set with MDA-MB-231-cells (setting [7]) it was 0.01 µM. In addition, the “minimum T/Ccorr- resp. τ-value” in the data set on MDA-MB-231 cells (MDA-MB-231, 0.05 µM) is given as 46.0%; with MDA-MB-231 cells (MDA-MB-231, 0.1 µM) it was 66.2%; with MDA-MB-231 cells (MDA-MB-231, 0.5 µM) it was -27.8%; in the data set with MDA-MB-231 cells (MDA-MB-231, 1 µM), -40.8%; in the data set on MCF-7 cells [1] (MCF-7, 0.05 µM), 92.6%; with MCF-7 cells [1] (MCF-7, 0.1 µM), 80.4%. The “minimum T/Ccorr- resp. τ-value” in the data set with MCF-7 cells [1] (MCF-7, 0.5 µM) is -23.4%; in the data set on MCF-7 cells [1] (MCF-7, 1 µM), -50.8%; with LNCaP-FGC-cells (0.1 µM) it was 34.4%; in the data set with LNCaP-FGC-cells (0.5 µM), 3.6%; in the data set with LNCaP-FGC-cells (1 µM) it was -19.5%; in the data set on HeLa cells (0.1 µM), 36.2%. In addition, the “minimum T/Ccorr- resp. τ-value” with HeLa cells (0.5 µM) is given as 52.1%; in the data set with HeLa cells (1 µM), -26.0%. For the same compound, the “effect on cell mass (interpretation of T/Ccorr resp. τ)” value in the data set with MCF-7 cells [1] (MCF-7, 0.5 µM) was “cytocide effect (T/Ccorr or τ < 0 %)”. Also, the DNA cleaving effect entry in data set [2] (setting [5]) was “DNA double strand breakages”; in data set [2] (setting [6]), “DNA single strand breakages”.

`C#CCOC(=O)c1ccccc1OC(C)=O.[C-]#[O+].[C-]#[O+].[C-]#[O+].[C-]#[O+].[C-]#[O+].[C-]#[O+].[Co].[Co]` [Co-Ass, Hexacarbonyl[2-propyn-1-ylacetylsalicylat]dicobalt]: the half-maximal inhibitory concentration (IC50) in the data set on MCF-7-cells (setting [4]) was determined as 1.4 µM; with MDA-MB-231-cells (setting [7]), 1.9 µM.

With `O=c1[nH]cc(F)c(=O)[nH]1` [5-fluorouracil], the IC50 was 4.8 µM with MCF-7-cells (setting [8]) and 9.6 µM in the data set with MDA-MB-231-cells (setting [9]).

`Nc1ccccc1N` [o-phenylenediamine]: the IC50 in the data set with MCF-7-cells (setting [8]) was determined as 5.1 µM; in the data set on MDA-MB-231-cells (setting [9]), 23.5 µM.

Turning to `N.N.O=C([O-])C1(C(=O)[O-])CCC1.[Pt+2]` [Carboplatin], the “minimum T/Ccorr- resp. τ-value” in the data set with LNCaP-FGC-cells (0.5 µM) came to 69.5%; with LNCaP-FGC-cells (1 µM), 55.5%; in the data set with LNCaP-FGC-cells (5 µM), 19.6%. The “enrichment in comparison with the outer medium” value (shortened to “enrichment in comparison”) in the data set on MCF-7 cells [3] is 1,6.

`[Fe+2].[O-]c1ccccc1C=Nc1ccccc1N=Cc1ccccc1[O-]` [Fe(II)salophen, [N,N'-Bis(salicylidene)phenylene-1,2-diamine]-iron(II)]: the IC50 in the data set on MCF-7-cells (setting [4]) was 0.4 µM; in the data set on MDA-MB-231-cells (setting [7]), 0.1 µM. Besides, the “minimum T/Ccorr- resp. τ-value” in the data set with MDA-MB-231 cells (MDA-MB-231, 0.05 µM) is reported as 90.0%; in the data set with MDA-MB-231 cells (MDA-MB-231, 0.1 µM), 41.9%; with MDA-MB-231 cells (MDA-MB-231, 0.5 µM), -19.1%; in the data set with MDA-MB-231 cells (MDA-MB-231, 1 µM), -29.7%; in the data set on MCF-7 cells [1] (MCF-7, 0.05 µM), 96.5%; in the data set with MCF-7 cells [1] (MCF-7, 0.1 µM) it was 96.7%. In addition, the “minimum T/Ccorr- resp. τ-value” in the data set with MCF-7 cells [1] (MCF-7, 0.5 µM) was 35.7%; with MCF-7 cells [1] (MCF-7, 1 µM), -35.9%; in the data set on LNCaP-FGC-cells (0.1 µM), 47.3%; in the data set with LNCaP-FGC-cells (0.5 µM), 8.9%; in the data set with LNCaP-FGC-cells (1 µM) it was -25.6%. The values for the DNA cleaving effect entry in data set [2] (setting [5]) and in data set [2] (setting [6]) were “DNA double strand breakages” and “DNA single strand breakages”, respectively.

As for `[Cl][Fe]([Cl])[Cl]` [FeCl3], the 50% inhibitory concentration (IC50) in the data set with MCF-7-cells (setting [4]) and in the data set on MDA-MB-231-cells (setting [7]) was above 100 µM each time.

For the compound `O=C1[O][Pt]2([NH][C@@H]3CCCC[C@H]3[NH]2)[O]C1=O` [Oxaliplatin], the “minimum T/Ccorr- resp. τ-value” is on record as 12.7% with LNCaP-FGC-cells (0.5 µM), -0.6% with LNCaP-FGC-cells (1 µM) and -31.0% in the data set with LNCaP-FGC-cells (5 µM). Further, the “enrichment in comparison” value with MCF-7 cells [3] is given as “sixfold”.

Consider `CC(=O)[O-].CC(=O)[O-].[Fe+2]` [Fe(OAc)2], for which the IC50 in the data set with MCF-7-cells (setting [4]) and with MDA-MB-231-cells (setting [7]) was above 50 µM throughout.

As for `N.N.[Cl][Pt][Cl]` [cisplatin, reference compound], the half-maximal inhibitory concentration (IC50) with MCF-7-cells (setting [4]) turned out to be 2 µM; with MDA-MB-231-cells (setting [7]), 4 µM. Also, the “minimum T/Ccorr- resp. τ-value” in the data set on MDA-MB-231 cells (MDA-MB-231, 0.5 µM) came out at 79.7%; in the data set on MDA-MB-231 cells (MDA-MB-231, 1 µM), 69.0%; with MCF-7 cells [1] (MCF-7, 0.5 µM), 55.1%; with MCF-7 cells [1] (MCF-7, 1 µM) it was 2.2%; in the data set on LNCaP-FGC-cells (0.5 µM) it was 59.0%; with LNCaP-FGC-cells (1 µM), 32.7%. For the same compound, the entries for the “minimum T/Ccorr- resp. τ-value” in the data set on LNCaP-FGC-cells (5 µM), in the data set with HeLa cells (0.5 µM) and in the data set on HeLa cells (1 µM) were 6.7%, 55.9% and 33.5%, respectively. For the same compound, the “enrichment in comparison” value in the data set with MCF-7 cells [3] is reported as “fivefold”.

Take `Oc1ccccc1C=Nc1ccccc1N=Cc1ccccc1O` [ligand, N,N'-bis(salicylidene)-phenylene-1,2-diamine, reference compound]: the DNA decomposition entry in data set [2] (1 h incubation at 37 °C, with or without additional reducing agents (DTT, 2-ME)) was “not able to decompose DNA”.
